Reference: PMC5464911, “SEL120-34A is a novel CDK8 inhibitor active in AML cells with high levels of serine phosphorylation of STAT1 and STAT5 transactivation domains” (Oncotarget, 2017)

Columns and labels:
CDK19/CycC = CDK19/CycC (Homo sapiens, UniProt Q9BWU1); experiment: Radiometric protein kinase assay (PanQinase, ProQinase)
Description: (§1) A radiometric protein kinase assay (PanQinase® Activity Assay, ProQinase) was used for measuring activities of CDK8/CycC and CDK19/CycC protein kinases.

CDK8/CycC = CDK8/CycC (Homo sapiens, UniProt P49336); experiment: as above
Description: as §1

PL-21 = experiment: Extended viability test (AlamarBlue); assay type: cell-based; settings: extended viability assay
Kasumi-1 = experiment: Extended viability test (AlamarBlue); assay type: cell-based; settings: Homo sapiens, extended viability assay
EOL-1 = experiment: Extended viability test (AlamarBlue); assay type: cell-based; settings: Homo sapiens, EOL1; extended viability assay
MOLM13 = experiment: Extended viability test (AlamarBlue); assay type: cell-based; settings: Homo sapiens, MOLM-13; extended viability assay
ME-1 = experiment: Extended viability test (AlamarBlue); assay type: cell-based; settings: extended viability assay
GDM-1 = experiment: Extended viability test (AlamarBlue); assay type: cell-based; settings: Homo sapiens, extended viability assay
Oci-AML3 = experiment: Extended viability test (AlamarBlue); assay type: cell-based; settings: Homo sapiens, OCI-AML-3; extended viability assay
SIG-M5 = experiment: Extended viability test (AlamarBlue); assay type: cell-based; settings: Homo sapiens, extended viability assay
MV4-11 = experiment: Extended viability test (AlamarBlue); assay type: cell-based; settings: Homo sapiens, extended viability assay
AML cell lines = experiment: Broad profiling in a panel of AML cell lines (extended viability tests); assay type: cell-based; settings: SKNO-1, KG-1, HEL-60, MOLM-16, MV-4-11, OciAML-2, MOLM-6 and OciAML-3; read-out: GI50 in sensitive responder cell lines
Procedure: Mean GI50 (day 10) is shown and plotted on the graph (n=3). (D) Levels of phosphorylated STAT5 S726 and […] in AML cells from the panel C were measured by WB. Densitometry for STAT5 S726 and […] signals is shown and plotted on the graph. Cell lines from the panel D were divided into two classes based on the sensitivity to CDK8 inhibitors treatment (responders GI50<1 μM and non-responder GI50>1 μM), mean levels of STAT5 S726 (E) or STAT1 S727 (F) in selected cell lines measured by densitometry were presented on scatter plots. Differences between responder and non-responder were assessed by t-tests (p value is shown).
Cells grown in suspension were plated onto 96-well culture dishes in triplicate at 20000 cells per well in 200 μl of their culture medium, except Kasumi-1 cells, which were plated at 60 000/well. Cells were incubated in the presence of vehicle, 1 μM docetaxel (positive control, Santa Cruz Biotechnology) or 6 serially - diluted concentrations of tested compound. The compound effect was determined by AlamarBlue measurement. On days 3, 6-7 and 10, an equal volume from all wells was also split-back with fresh media supplemented with tested compound, resulting in a cell density for the vehicle well that matched the initial seeding density. […]

Oci-AML5 = experiment: Extended viability test (AlamarBlue); assay type: cell-based; settings: Homo sapiens, OCI-AML-5; extended viability assay
MOLM16 = experiment: Extended viability test (AlamarBlue); assay type: cell-based; settings: extended viability assay
SKM-1 = experiment: Extended viability test (AlamarBlue); assay type: cell-based; settings: Homo sapiens, extended viability assay
KG-1 = experiment: Extended viability test (AlamarBlue); assay type: cell-based; settings: Homo sapiens, extended viability assay
MOLM-14 cell line = system: MOLM-14 cell line; parameters: method as in PMID 26416749; settings: previously identified; cited from earlier work
RNAP II CTD S2 and S5 = experiment: RNAP II CTD phosphorylation in HCT-116 cells (WB); assay type: cell-based; settings: SEL120-34A up to 2.5 μM
Procedure: 0,1% SDS; 20 mM β-glicerol phosphate; 5 mM NaF; cat. # sc835), α-STAT5-pS726 (1:1000; Abcam, cat. # 1 mM Na3VO4) supplemented with protease inhibitors ab128896), α-STAT5-pY694 (1:1000; Cell Signaling, (Santa Cruz Biotechnology). Tumor samples were cat. #C11C5), α-tubulin (1:4000; Sigma, cat. # T5192) homogenized in 15 sec intervals and kept on ice between and β-actin (1:4000, Sigma cat. # A2066) or GAPDH homogenization cycles. Protein concentration in lysates (1:20000; Sigma, cat. # G9545) was measured by the Bradford assay and adjusted to achieve the same final concentration in each well (20-30 mRNA extraction from xenograft tissue μg protein/well). […] A scoop Unless indicated otherwise, membranes were blocked of a tumor (~25mg) was homogenized with a pestle for 45 min with 2% fat-free dried milk (Rovema, Poland) under liquid nitrogen and immediately processed in Tris-buffered saline (TBS) + 0.05% Tween (TBST), according to the RNeasy Mini Kit protocol (Qiagen). incubated overnight at 4°C with primary antibodies diluted The RNA concentration was measured by a NanoDrop into 2% milk in TBST and washed four times for 10 min spectrophotometer and stored at -80°C for downstream with TBST. […]
with the activities of CDK9 in cells. […] Protein levels of RNAP II CTD pS2, pS5, cMYC and GAPDH were measured by WB.

STAT5 S726 and Y694 = experiment: STAT phosphorylation in SET-2 cells (JAK2 V617F), WB; assay type: cell-based; settings: 24 hours
Procedure: (B) SEL120-34A inhibits IFN-dependent phosphorylation of STAT1 S727. HCT-116 cells stimulated with IFNg for 4 h were treated with increasing doses of SEL120-34A, Flavopiridol (F) or vehicle DMSO (C) to determine changes in the phosphorylation of STAT1 S727 and Y701, as measured by WB. (*) unspecific band. (C) SEL120-34A inhibits serine phosphorylation of STAT1 S727 and STAT5 S726, whereas Ruxolitinib inhibits tyrosine phosphorylation of STAT1 Y701 and STAT5 Y694 in JAK2 V617F cells. SET-2 cells were treated with Ruxolitinib, SEL120-34A or vehicle DMSO (C) for 24 hours and protein levels of pS727, pY701 STAT1 and pS726, pY694 STAT5 were measured by WB. […]
0,1% SDS; 20 mM β-glicerol phosphate; 5 mM NaF; cat. # sc835), α-STAT5-pS726 (1:1000; Abcam, cat. # 1 mM Na3VO4) supplemented with protease inhibitors ab128896), α-STAT5-pY694 (1:1000; Cell Signaling, (Santa Cruz Biotechnology). […] Protein concentration in lysates (1:20000; Sigma, cat. # G9545) was measured by the Bradford assay and adjusted to achieve the same final concentration in each well (20-30 mRNA extraction from xenograft tissue μg protein/well). […] Prior to microarray analyses, the quality of the incubation with secondary donkey anti-rabbit antibodies RNA samples was determined using an Agilent 2100 conjugated to HRP, used at 1:4000 (Cell Signaling, Bioanalyzer (Agilent Technologies, CA, USA). […]

Sequence of CDK8/CycC (P49336 whole entry): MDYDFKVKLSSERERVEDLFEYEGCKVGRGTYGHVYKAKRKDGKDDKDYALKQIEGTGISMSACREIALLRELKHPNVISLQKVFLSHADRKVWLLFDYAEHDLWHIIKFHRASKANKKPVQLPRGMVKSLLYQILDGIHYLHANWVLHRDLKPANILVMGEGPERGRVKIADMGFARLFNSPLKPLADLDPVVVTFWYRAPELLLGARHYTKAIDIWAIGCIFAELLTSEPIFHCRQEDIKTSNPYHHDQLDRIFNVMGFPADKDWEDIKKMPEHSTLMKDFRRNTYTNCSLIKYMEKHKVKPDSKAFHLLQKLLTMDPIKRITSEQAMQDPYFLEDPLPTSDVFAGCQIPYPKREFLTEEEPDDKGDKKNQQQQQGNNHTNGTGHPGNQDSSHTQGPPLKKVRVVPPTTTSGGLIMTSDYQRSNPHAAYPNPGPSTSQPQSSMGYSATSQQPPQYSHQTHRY
Sequence of CDK8/CycC (P24863 whole entry partner): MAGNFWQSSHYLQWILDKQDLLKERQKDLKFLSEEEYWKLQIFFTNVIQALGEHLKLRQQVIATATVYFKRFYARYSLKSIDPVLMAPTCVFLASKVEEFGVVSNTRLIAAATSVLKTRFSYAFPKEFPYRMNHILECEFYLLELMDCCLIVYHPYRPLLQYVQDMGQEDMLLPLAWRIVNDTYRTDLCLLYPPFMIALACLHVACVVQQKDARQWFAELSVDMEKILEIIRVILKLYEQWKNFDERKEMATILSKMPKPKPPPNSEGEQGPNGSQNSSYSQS
Sequence of CDK19/CycC (Q9BWU1 whole entry): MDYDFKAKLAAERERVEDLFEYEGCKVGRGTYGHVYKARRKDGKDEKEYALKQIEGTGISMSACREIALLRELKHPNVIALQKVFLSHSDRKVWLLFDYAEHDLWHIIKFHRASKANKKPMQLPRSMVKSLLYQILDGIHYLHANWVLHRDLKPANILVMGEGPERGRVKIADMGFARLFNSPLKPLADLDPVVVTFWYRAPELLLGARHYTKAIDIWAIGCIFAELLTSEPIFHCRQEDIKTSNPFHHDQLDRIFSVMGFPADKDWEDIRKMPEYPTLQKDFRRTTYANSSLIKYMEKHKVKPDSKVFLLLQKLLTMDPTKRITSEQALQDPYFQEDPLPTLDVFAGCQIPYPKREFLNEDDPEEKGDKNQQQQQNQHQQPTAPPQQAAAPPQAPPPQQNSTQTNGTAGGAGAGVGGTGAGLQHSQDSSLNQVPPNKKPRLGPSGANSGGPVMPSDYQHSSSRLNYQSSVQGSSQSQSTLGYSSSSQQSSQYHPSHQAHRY
Sequence of CDK19/CycC (P24863 whole entry partner): as the sequence (P24863 whole entry partner) above

Cn1cc(-c2ccc(-c3cncc(Cl)c3N3CCC4(CCNC4=O)CC3)cc2)cn1 [CCT251545, reference compound]
IC50 (CDK19/CycC): 14.4 nM
IC50 (CDK8/CycC): 4.2 nM

CN1CCN(C(=O)c2ccc3cc(CCNc4ncnc5ccc(C#N)cc45)ccc3c2)CC1 [Senexin B, reference compound]
GI50 (PL-21): 2600 nM
GI50 (Kasumi-1): 5000 nM
GI50 (EOL-1): 960 nM
GI50 (MOLM13): 5000 nM
GI50 (ME-1): 170 nM
GI50 (GDM-1): 270 nM
GI50 (Oci-AML3): 360 nM
GI50 (SIG-M5): 5000 nM
GI50 (MV4-11): 230 nM
GI50 (AML cell lines): < 1000 nM
GI50 (Oci-AML5): 70 nM
GI50 (MOLM16): 340 nM
GI50 (SKM-1): 5000 nM
IC50 (CDK8/CycC): 17.3 nM
GI50 (KG-1): 150 nM

CN(C)[C@H]1C[C@@]23CC[C@@]4(O2)C(=CC[C@]2(C)[C@@H](c5ccc6ccncc6c5)CC[C@H]24)C=C3[C@@H](O)[C@@H]1O [CA, Cortistatin A]
sensitivity of MOLM-14 cell line to treatment (MOLM-14 cell line): sensitive

CN1CC[C@H](c2c(O)cc(O)c3c(=O)cc(-c4ccccc4Cl)oc23)[C@H](O)C1 [Flavopiridol, reference compound]
RNAP II CTD phosphorylation at S2 and S5 (RNAP II CTD S2 and S5): active

N#CC[C@H](C1CCCC1)n1cc(-c2ncnc3[nH]ccc23)cn1 [Ruxolitinib, reference compound]
STAT5 S726 phosphorylation (STAT5 S726 and Y694): unaffected
STAT5 Y694 phosphorylation (STAT5 S726 and Y694): inhibition
